Holding throughout (format): cell-based
The target of assay [1] is T1, CRBN-IKZF1 interaction (Homo sapiens, UniProt Q96SW2).
T1 construct: expressed in transfected cells; host or cells: HEK293T
Kind of assay: MAPPIT forward assay, CRBN receptor fusion + IKZF1 gp130 fusion. The conditions noted are these: forward configuration; HEK293T cells; EPO; dose-response; IKZF1 isoform 7. The text has this:
(§1) The traditional MAPPIT assay has been used to monitor protein-protein interactions. A bait protein (protein A) is expressed as a fusion protein in which it is genetically fused to an engineered intracellular receptor domain of the leptin receptor, which is itself fused to the extracellular domain of the erythropoietin (Epo) receptor. Binding of Epo ligand to the Epo receptor component results in activation of receptor-associated intracellular JAK2. However, activated JAK2 cannot activate the leptin receptor to trigger STAT3 binding and its phosphorylation because its tyrosine residues, normally phosphorylated by activated JAK2, have been mutated. […] Activation of STAT3 can be monitored by introduction of a STAT3-responsive reporter gene, including a luciferase-encoding gene or a gene encoding a fluorescent marker such as GFP or some other type of Fluorescent Protein (EGFP etc.). […]
(§2) Full size proteins were fused for each of the target/prey proteins tested, except in the case of IKZF1 where isoform 7 was used. […] Luciferase activity was measured 24 hours after test compound treatment using the Luciferase Assay System kit (PROMEGA, Madison, Wis.) with an Ensight plate reader (PERKIN ELMER LIFE SCIENCES, Waltham, Mass.). […]

Assay [2] has as its target T1, CRBN-IKZF1 interaction. Kind of assay: MAPPIT inverse assay, CRBN gp130 fusion + IKZF1 receptor fusion. As to conditions: inverse configuration; HEK293T cells; EPO; dose-response; IKZF1 isoform 7.
Excerpt: as §1, §2

For another assay, the target named is T2, CRBN (Homo sapiens, UniProt Q96SW2).
T2 construct: expressed in transfected cells; host or cells: HEK293T
Kind of assay: CRBN inverse MAPPIT competition assay against TMP-lenalidomide hybrid ligand. As to conditions: 300 nM TMP-lenalidomide; leptin; HEK293T; specificity versus gp130-REM2 control (CTRL). The text has this: As in Example 6, HEK293T cells were transfected with a plasmid encoding E. coli Dihydrofolate Reductase (DHFR) fused to the tails of the cytoplasmic domain of a mutated leptin receptor (pCLG-DHFR), a plasmid encoding a CRBN prey fused to the gp130 cytoplasmic domain or a plasmid encoding a gp130-REM2 control fusion that can directly interact with the leptin receptor of the DHFR fusion protein, and the STAT3 responsive pXP2d2-rPAPI-luciferase reporter plasmid—using a standard transfection method, as described (Lievens, et al. “Array MAPPIT: high-throughput interactome analysis in mammalian cells.” Journal of Proteome Research 8.2 (2009): 877-886). […] Data points in FIGS. 10A-B represent the average luciferase activity of triplicate samples derived from cells treated with leptin+test compound for the REM2 control (CTRL) or cells treated with leptin+hybrid ligand+test compound (CRBN) relative to leptin (CTRL) or leptin+hybrid ligand (CRBN) only treated samples (the signals obtained in absence of added test compound for both cases is set at 100% of luciferase activity on y-axis). Error bars represent standard deviations. Curves were fit using 4-parameter nonlinear regression in […] PRISM software.

Assay [3] addresses T3, CRBN-IKZF2 interaction (Homo sapiens, UniProt Q96SW2). Kind of assay: MAPPIT inverse assay, CRBN gp130 fusion + IKZF2 receptor fusion. The conditions noted are these: inverse configuration; HEK293T cells; EPO; dose-response. On the set-up: expressed in transfected cells; host or cells: HEK293T.
Excerpt: as §1, §2

Assay [4] deals with T4, CRBN-SALL4 interaction (Homo sapiens, UniProt Q96SW2). Kind of assay: MAPPIT inverse assay, CRBN gp130 fusion + SALL4 receptor fusion. On the set-up: expressed in transfected cells; host or cells: HEK293T. The conditions noted are these: inverse configuration; HEK293T cells; EPO; dose-response.
Excerpt: as §1, §2

The target in assay [5] is T5, CRBN-CSNK1A (CK1a) interaction (Homo sapiens, UniProt Q96SW2). Kind of assay: MAPPIT inverse assay, CRBN gp130 fusion + CSNK1A1 receptor fusion. On the set-up: expressed in transfected cells; host or cells: HEK293T. As to conditions: inverse configuration; HEK293T cells; EPO; dose-response.
Excerpt: as §1, §2

The target of assay [6] is T3, CRBN-IKZF2 interaction. Kind of assay: MAPPIT forward assay, CRBN receptor fusion + IKZF2 gp130 fusion. On the set-up: MAPPIT chimeric receptor (EPO receptor extracellular domain + signaling-deficient leptin receptor part); expressed in transfected cells; host or cells: HEK293T. The conditions noted are these: forward configuration; HEK293T cells; EPO; dose-response.
Excerpt: as §1, §2

The target of assay [7] is T4, CRBN-SALL4 interaction. Kind of assay: MAPPIT forward assay, CRBN receptor fusion + SALL4 gp130 fusion. On the set-up: MAPPIT chimeric receptor (EPO receptor extracellular domain + signaling-deficient leptin receptor part); expressed in transfected cells; host or cells: HEK293T. As to conditions: forward configuration; HEK293T cells; EPO; dose-response.
Excerpt: as §1, §2

Assay [8] addresses T5, CRBN-CSNK1A (CK1a) interaction. Kind of assay: MAPPIT forward assay, CRBN receptor fusion + CSNK1A1 gp130 fusion. On the set-up: MAPPIT chimeric receptor (EPO receptor extracellular domain + signaling-deficient leptin receptor part); expressed in transfected cells; host or cells: HEK293T. As to conditions: forward configuration; HEK293T cells; EPO; dose-response.
Excerpt: as §1, §2

Molecules are shown by their SMILES. Entries after “also recorded” stand apart in the source; their conditions may differ.

For the molecule `O=C1CC[C@H](N2Cc3c(OCc4ccc(CN5CCOCC5)cc4)cccc3C2=O)C(=O)N1` [CC-220], the “compound-induced binding of IKZF1 to CRBN (luciferase reporter signal)” value was “can be detected with both the forward and the inverse assay configuration” on CRBN-IKZF1 interaction [1]; “can be detected with both the forward and the inverse assay configuration” at CRBN-IKZF1 interaction [2]. Moreover, the “competition with TMP-lenalidomide hybrid ligand for binding to CRBN (inhibition of luciferase signal)” value on CRBN is given as “specifically inhibit hybrid-ligand induced luciferase reporter activation in a dose-dependent manner; also recorded: competed efficiently”. For the same molecule, the “compound-induced binding of IKZF2 to CRBN (luciferase reporter signal)” value on CRBN-IKZF2 interaction [3] is reported as “an interaction signal response could be detected”; at CRBN-IKZF2 interaction [6], “only in the inverse assay setup an interaction signal response could be detected”. Further, the “compound-induced binding of SALL4 to CRBN (luciferase reporter signal)” value on CRBN-SALL4 interaction [4] is given as “an interaction signal response could be detected”; at CRBN-SALL4 interaction [7], “only in the inverse assay setup an interaction signal response could be detected”. Moreover, the “compound-induced binding of CSNK1A (CK1a) to CRBN (luciferase reporter signal)” value in [5] was “an interaction signal response could be detected; also recorded: specific signal in the inverse”; in assay [8] it was “only in the inverse assay setup an interaction signal response could be detected”.

These data come from US20230026360A1, “DETECTION OF MOLECULAR INTERACTIONS” (Orionis Biosciences, Inc., priority 2019, published 2023).
